Tests used:
Water solubility = format: physicochemical; settings: greater than biotin
[1] = preclinical models; compared to D-biotin; cited from earlier work
hair and nail growth = experiment: Hair density, anagen ratio, telogen ratio, nail growth and molecular analysis in rats (Example 4); format: in vivo, Sprague-Dawley rats
Procedure: Twenty-eight female Sprague-Dawley rats (8 weeks old) were randomized into one of the following groups: (i) group (control), shaved; (ii) group (ASI), shaved+ASI (4.14 mg/rat/day); (iii) group (ASI+MgB I), shaved+ASI (4.14 mg/rat/day)+MgB (48.7 μg/rat/day); and (iv) group (ASI+MgB II), shaved+ASI (4.14 mg/rat/day)+MgB (325 μg/rat/day). On day 42, compared with the control group, while hair density (p<0.05, p<0.01, and p<0.0001, respectively) and anagen ratio (p<0.01, p<0.01, and p<0.001) increased in the ASI, ASI+MgB I, and ASI+MgB II groups, telogen ratio decreased (p<0.01, p<0.01, and p<0.001, respectively). In the molecular analysis, VEGF, HGF, and KGF-2 increased in the ASI (p<0.01, p<0.01, and p<0.05, respectively), ASI+MgB I (p<0.0001 for all), and ASI+MgB II (p<0.0001 for all) groups when compared to the control group. […] SIRT-1 and β-catenin increased in the ASI (p<0.05 and p<0.01), ASI+MgB I (p<0.001 for both), and ASI+MgB II (p<0.0001 for both) groups. Wnt-1 increased in the ASI+MgB I (p<0.001) and ASI+MgB II (p<0.0001) groups.

[2] = day 42, compared with the control group

Row | Substance | water solubility relative to biotin (Water solubility) | absorption and uptake in tissue [1] | anagen ratio (hair and nail growth; [2]) | hair density (hair and nail growth; [2]) | telogen ratio (hair and nail growth; [2]) | SIRT-1 and β-catenin (hair and nail growth; molecular analysis) | VEGF, HGF, and KGF-2 (hair and nail growth; molecular analysis, compared to the control group) | nail growth (hair and nail growth; rats)
1 | magnesium biotinate | about 40 times | superior absorption and greater uptake in tissue | – | – | – | – | – | –
2 | inositol-stabilized arginine silicate complex [ASI] | – | – | increased | increased | decreased | increased | increased | did not affect nail growth

— US20260130936A1, “COMPOSITIONS COMPRISING AN ACTIVE INGREDIENT MIXTURE COMPRISING SILICON AND BIOTIN AND METHODS OF USE” (Nutrition21, LLC, priority 2022, published 2026)
